Assays:
Format in all cases: in vivo
[1] = system: summer wheat (TRZAS; cv. Triso); assay: Relative action (efficacy code): reduction of damage by mesosulfuron-methyl on summer wheat; set-up: key: 0: no reduction in damage (appearance corresponding to the herbicide control); 1: slight reduction in damage; 2: distinct reduction in damage; 3: significant reduction in damage; 4: complete reduction in damage (appearance corresponding to the untreated control); conditions: then mesosulfuron-methyl 40-60 g/ha, visual, 9-13 days after application
Protocol: 2.3 Relative Action of Selected Compounds of the Invention Using the Example of Reduction of Damage by Mesosulfuron-Methyl on Summer Wheat (TRZAS) The seeds of the crop plants to be treated are laid out in sandy loam in plastic pots (diameter ˜4 cm), covered with soil and grown in a greenhouse under good conditions for germination and growth. The trial plants were treated at the early leaf stage (BBCH10—BBCH12). In the course of this, the inventive compounds of the general formula (I) formulated in the form of wettable powders (WP) were sprayed onto the above-ground parts of the plants as an aqueous suspension with a water application rate corresponding to 800 l/ha with addition of wetting agent (e.g. 0.2% Genapol-LRO or 0.2% Mero) in the specified dose. This was followed by the application of the herbicide. For this purpose, mesosulfuron-methyl, formulated in the form of water-dispersible granules (WG), was sprayed onto the above-ground parts of the plants in the form of an aqueous dispersion with a water application rate corresponding to 800 l/ha with addition of wetting agent (e.g. 0.2% Genapol-LRO or 1 l/ha Biopower) in a dose of 40-60 g/ha. The dose of the herbicide was chosen here such that it causes visually apparent damage (min. 30%, max. 75%) compared to untreated crop plants at the evaluation time on a control group of crop plants without safener treatment that were included in the same trial. After application, the plants were cultivated under good growth conditions in a greenhouse. 9-13 days after application, the efficacy of the test compounds was assessed visually. For this purpose, the appearance of the plants treated with the test compound and herbicide was compared to the corresponding herbicide controls (without safener; with clearly visible damage) and the untreated controls (without damage). The damage-reducing effect of the test compounds was expressed here in graded efficacy codes according to the following scheme: • 0: no reduction in damage (appearance corresponding to the herbicide control) • 1: slight reduction in damage • 2: distinct reduction in damage • 3: significant reduction in damage • 4: complete reduction in damage (appearance corresponding to the untreated control) The trials show clear efficacy of the substances of the invention with regard to the reduction in damage to the summer wheat crop plant (TRZAS; cv. Triso) caused by the herbicide mesosulfuron-methyl: […]

[2] = system: summer barley (HORVS; cv. Montoya); assay: Relative action (efficacy code): reduction of damage by mesosulfuron-methyl on summer barley; set-up: key: 0: no reduction in damage (appearance corresponding to the herbicide control); 1: slight reduction in damage; 2: distinct reduction in damage; 3: significant reduction in damage; 4: complete reduction in damage (appearance corresponding to the untreated control); conditions: then mesosulfuron-methyl 40-60 g/ha, visual, 9-13 days after application
Protocol: 2.4 Relative Action of Selected Compounds of the Invention Using the Example of Reduction of Damage by Mesosulfuron-Methyl on Summer Barley (HORVS) The seeds of the crop plants to be treated are laid out in sandy loam in plastic pots (diameter ˜4 cm), covered with soil and grown in a greenhouse under good conditions for germination and growth. The trial plants were treated at the early leaf stage (BBCH10—BBCH12). In the course of this, the inventive compounds of the general formula (I) formulated in the form of wettable powders (WP) were sprayed onto the above-ground parts of the plants as an aqueous suspension with a water application rate corresponding to 800 l/ha with addition of wetting agent (e.g. 0.2% Genapol-LRO or 0.2% Mero) in the specified dose. This was followed by the application of the herbicide. For this purpose, mesosulfuron-methyl, formulated in the form of water-dispersible granules (WG), was sprayed onto the above-ground parts of the plants in the form of an aqueous dispersion with a water application rate corresponding to 800 l/ha with addition of wetting agent (e.g. 0.2% Genapol-LRC) or 1 l/ha Biopower) in a dose of 40-60 g/ha. The dose of the herbicide was chosen here such that it causes visually apparent damage (min. 30%, max. 75%) compared to untreated crop plants at the evaluation time on a control group of crop plants without safener treatment that were included in the same trial. After application, the plants were cultivated under good growth conditions in a greenhouse. 9-13 days after application, the efficacy of the test compounds was assessed visually. For this purpose, the appearance of the plants treated with the test compound and herbicide was compared to the corresponding herbicide controls (without safener; with clearly visible damage) and the untreated controls (without damage). The damage-reducing effect of the test compounds was expressed here separately for 2 repeats in graded efficacy codes according to the following scheme: • 0: no reduction in damage (appearance corresponding to the herbicide control) • 1: slight reduction in damage • 2: distinct reduction in damage • 3: significant reduction in damage • 4: complete reduction in damage (appearance corresponding to the untreated control) The trials show clear efficacy of the substances of the invention with regard to the reduction in damage to the summer barley crop plant (HORVS; cv. Montoya) caused by the herbicide mesosulfuron-methyl: […]

[3] = system: summer wheat (TRZAS; cv. Triso); assay: Absolute action: reduction of damage by mesosulfuron-methyl on summer wheat, greenhouse post-emergence; conditions: for Absolute reduction in herbicide damage (damage without safener minus damage with safener): mesosulfuron-methyl 20 g/ha; for Herbicide damage with compound of the formula (I): then mesosulfuron-methyl 20 g/ha, visual 0-100% scale, 14-21 days after application
Protocol: (§1) 2.1 Absolute Action of Selected Compounds of the Invention Using the Example of Reduction of Damage by Mesosulfuron-Methyl on Summer Wheat (TRZAS) The seeds of the crop plants to be treated are laid out in sandy loam in wood fiber or plastic pots (diameter ˜4 cm), covered with soil and grow in a greenhouse under good conditions for germination and growth. The trial plants were treated at the early leaf stage (BBCH10—BBCH12). In the course of this, the inventive compounds of the general formula (I) formulated in the form of wettable powders (WP) were sprayed onto the above-ground parts of the plants as an aqueous suspension with a water application rate corresponding to 800 l/ha with addition of wetting agent (e.g. 0.2% agrotin) in the specified dose. This was followed by the application of the herbicide. For this purpose, mesosulfuron-methyl, formulated in the form of water-dispersible granules (WG), was sprayed onto the above-ground parts of the plants in the form of an aqueous dispersion with a water application rate corresponding to 800 l/ha with addition of wetting agent (e.g. 0.2% agrotin) in a dose of 20 g/ha. The dose of the herbicide was chosen here such that it causes visually apparent damage (min. 30%, max. 75%) compared to untreated crop plants at the evaluation time on a control group of crop plants without safener treatment that were included in the same trial. After application, the plants were cultivated under good growth conditions in a greenhouse. The damage was visually assessed 14-21 days after application. The damage effect was assessed visually on a scale of 0-100% by comparison with untreated control plants, and averaged over 2-3 repeats per treatment. Examples: • 0%=no noticeable effect compared to the untreated plant • 20%=the treated plant population has 20% damage compared to the untreated control population (e.g. growth height, leaf damage, etc.) • 100%=treated plants completely damaged/killed.

[4] = system: summer barley (HORVS; cv. Montoya); assay: Absolute action: reduction of damage by mesosulfuron-methyl on summer barley, greenhouse post-emergence; conditions: for Absolute reduction in damage (difference): mesosulfuron-methyl 20 g/ha, damage without minus with safener; for Herbicide damage with compound of the formula (I) (%): then mesosulfuron-methyl 20 g/ha, visual 0-100% scale, 14-21 days after application
Protocol: as §1, with “2.2 Absolute Action” for “2.1 Absolute Action”, “on Summer Barley (HORVS) The seeds” for “on Summer Wheat (TRZAS) The seeds”, “treated are aid out in” for “treated are laid out in”, “soil and grown in a” for “soil and grow in a”, “leaf stage (BBCE10-BBCH12). In the” for “leaf stage (BBCH10—BBCH12). In the”, “control population (e.g.: growth height,” for “control population (e.g. growth height,”

[5] = safener dose 100 (unit not given)
[6] = safener dose 500 (unit not given)

Row | SMILES | Efficacy of the safener (efficacy code) [1, 5] | Efficacy of the safener (efficacy code) [1, 6] | Efficacy of the safener (efficacy code) ([2]; safener 100 g/ha) | Efficacy of the safener (efficacy code) ([2]; safener 500 g/ha) | also measured
1 | O=C(O)COc1nc(-c2ccc(F)cc2F)n(-c2c(F)cccc2F)n1 [I.42-43] | 2 | 2 | 2 | 2 | 
2 | COC(=O)COc1nc(-c2ccc(F)cc2F)n(-c2ccc(F)cc2Cl)n1 [I.40-48] | 2 |  | 2 |  | 
3 | O=C(O)COc1nc(-c2ccc(F)cc2F)n(-c2ccc(Cl)cc2F)n1 [I.42-49] | 2 | 2 | 2 | 3 | 
4 | COCCOC(=O)COc1nc(-c2ccc(F)cc2F)n(-c2ccc(Cl)cc2F)n1 [I.67-49] | 2 | 2 | 2 | 2 | 
5 | O=C(O)COc1nc(-c2c(F)cccc2F)n(-c2c(F)cccc2F)n1 [I.57-43] |  | 2 |  | 2 | 
6 | COC(=O)COc1nc(-c2c(F)cccc2F)n(-c2ccc(Cl)cc2F)n1 [I.55-49] | 2 | 2 | 2 | 2 | 
7 | CCOC(=O)COc1nc(-c2ccc(F)cc2F)n(-c2ccc(Cl)cc2F)n1 [I.41-49] | 2 |  | 2 |  | 
8 | O=C(O)COc1nc(-c2ccccc2)n(-c2c(F)cccc2F)n1 [I.3-43] | 2 | 2 | 2 | 2 | 
9 | O=C(COc1nc(-c2ccc(F)cc2F)n(-c2ccc(Cl)cc2F)n1)OCC1CCOC1 (stereo not shown) [I.63-49] | 2 |  | 2 |  | 
10 | O=C(O)COc1nc(-c2c(F)cccc2F)n(-c2ccc(Cl)cc2F)n1 [I.57-49] |  |  | 2 | 2 | 
11 | CCOC(=O)COc1nc(-c2cc(F)cc(F)c2)n(-c2ccc(F)cc2)n1 [I.53-4] |  |  |  |  | Absolute reduction in herbicide damage (damage without safener minus damage with safener) ([3]; safener 1000 g/ha): 20%; Herbicide damage with compound of the formula (I) ([3]; safener 1000 g/ha): 23%; Absolute reduction in damage (difference) ([4]; safener 250 g a.i./ha): 27%; Herbicide damage with compound of the formula (I) (%) ([4]; safener 250 g a.i./ha): 33%
12 | O=C(O)COc1nc(-c2ccc(F)cc2F)n(-c2ccc(Cl)cc2)n1 [I.42-7, {[1-(4-Chlorophenyl)-5-(2,4-difluorophenyl)-1H-1,2,4-triazol-3-yl]oxy}acetic acid] |  |  |  |  | Absolute reduction in herbicide damage (damage without safener minus damage with safener) ([3]; safener 250 g/ha): 43%; Herbicide damage with compound of the formula (I) ([3]; safener 250 g/ha): 0%; Absolute reduction in damage (difference) ([4]; safener 250 g a.i./ha): 60%; Herbicide damage with compound of the formula (I) (%) ([4]; safener 250 g a.i./ha): 0%
13 | CCOC(=O)COc1nc(-c2ccc(Cl)cc2Cl)n(-c2ccc(F)cc2F)n1 [I.44-38] |  |  |  |  | Absolute reduction in herbicide damage (damage without safener minus damage with safener) ([3]; safener 125 g a.i./ha): 53%; Herbicide damage with compound of the formula (I) ([3]; safener 125 g a.i./ha): 10%; Absolute reduction in herbicide damage (damage without safener minus damage with safener) ([3]; safener 500 g a.i./ha): 60%; Herbicide damage with compound of the formula (I) ([3]; safener 500 g a.i./ha): 3%; Absolute reduction in damage (difference) ([4]; safener 125 g a.i./ha): 43%; Herbicide damage with compound of the formula (I) (%) ([4]; safener 125 g a.i./ha): 17%; Absolute reduction in damage (difference) ([4]; safener 500 g a.i./ha): 50%; Herbicide damage with compound of the formula (I) (%) ([4]; safener 500 g a.i./ha): 10%

From patent US12583826B2, “[(1,5-diphenyl-1H-1,2,4-triazol-3-yl)oxy]acetic acid derivatives and salts thereof, crop protection compositions comprising them, methods for producing them and use thereof as safeners” (Bayer Aktiengesellschaft, priority 2019, dated 2026)
